#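 1) Cells in 96-well plates. 2) Compound, 48 h, 5 concentrations. 3) Linear interpolation between surrounding doses. 4) Unreached endpoint = highest concentration. The concentration for 50% growth inhibition is given as GI50.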 Activity calls are given as the source filed them. Cut-off read from the data, not from the text of the source: active = GI50 up to about 1.1 µM and inactive = higher.
# Legend:
# Test in all cases: NCI-60 cell line screen, 48 h
# SW-620 = tested on: SW-620
# 786-0 = tested on: 786-0
# RPMI-8226 = tested on: RPMI-8226
# NCI-H522 = tested on: NCI-H522
# HOP-62 = tested on: HOP-62
# DMS-273 = tested on: DMS-273
# SK-MEL-2 = tested on: SK-MEL-2
# U-251 = tested on: U-251
# DLD-1 = tested on: DLD-1
# SR = tested on: SR
# SNB-75 = tested on: SNB-75
# NCI-H226 = tested on: NCI-H226
# COLO 205 = tested on: COLO 205
# DMS-114 = tested on: DMS-114
# UACC-62 = tested on: UACC-62
# M14 = tested on: M14
# UACC-257 = tested on: UACC-257
# HCT-15 = tested on: HCT-15
# OVCAR-4 = tested on: OVCAR-4
# LXFL 529 = tested on: LXFL 529
# SK-MEL-5 = tested on: SK-MEL-5
# HOP-92 = tested on: HOP-92
# M19-MEL = tested on: M19-MEL
# LOX IMVI = tested on: LOX IMVI
# NCI-H460 = tested on: NCI-H460
# Malme-3M = tested on: Malme-3M
# UO-31 = tested on: UO-31
# SF-268 = tested on: SF-268
# SF-539 = tested on: SF-539
# NCI-H23 = tested on: NCI-H23
# OVCAR-8 = tested on: OVCAR-8
# K562 = tested on: K562
# CCRF-CEM = tested on: CCRF-CEM
# OVCAR-5 = tested on: OVCAR-5
# SK-MEL-28 = tested on: SK-MEL-28
# ACHN = tested on: ACHN
# MOLT-4 = tested on: MOLT-4
# TK-10 = tested on: TK-10
# HCC 2998 = tested on: HCC 2998
# KM-20L2 = tested on: KM-20L2
# A549 = tested on: A549
# SN12C = tested on: SN12C
# A498 = tested on: A498
# KM12 = tested on: KM12
# SNB-19 = tested on: SNB-19
# HCT-116 = tested on: HCT-116
# CAKI-1 = tested on: CAKI-1
# HL-60 = tested on: HL-60
# EKVX = tested on: EKVX
# OVCAR-3 = tested on: OVCAR-3
# IGROV-1 = tested on: IGROV-1
# SK-OV-3 = tested on: SK-OV-3
# SNB-78 = tested on: SNB-78
# RXF 393 = tested on: RXF 393
# HT-29 = tested on: HT-29
# SF-295 = tested on: SF-295
# Hs-578T = tested on: Hs-578T
# MDA-MB-435 = tested on: MDA-MB-435
# MDA-MB-231 = tested on: MDA-MB-231
# DU-145 = tested on: DU-145
# MDA-N = tested on: MDA-N
# NCI/ADR-RES = tested on: NCI/ADR-RES
# T47D = tested on: T47D
# MCF7 = tested on: MCF7
# PC-3 = tested on: PC-3
# BT-549 = tested on: BT-549
compound,measurement,setting,value
O=C(c1ccc(O)cc1)C1c2c3c(cc(O)c2C(c2ccc(O)cc2)C1c1cc(O)cc(O)c1)OC(c1ccc(O)cc1)C3c1cc2c(cc1O)OC(c1ccc(O)cc1)C2c1cc(O)cc(O)c1 (centres undefined),GI50,SW-620,> 12.5 µM (inactive)
same,GI50,786-0,> 12.5 µM (inactive)
same,GI50,RPMI-8226,> 12.5 µM (inactive)
same,GI50,NCI-H522,> 12.5 µM (inactive)
same,GI50,HOP-62,> 12.5 µM (inactive)
same,GI50,DMS-273,> 12.5 µM (inactive)
same,GI50,SK-MEL-2,> 12.5 µM (inactive)
same,GI50,U-251,> 12.5 µM (inactive)
same,GI50,DLD-1,> 12.5 µM (inactive)
same,GI50,SR,> 12.5 µM (inactive)
same,GI50,SNB-75,> 12.5 µM (inactive)
same,GI50,NCI-H226,> 12.5 µM (inactive)
same,GI50,COLO 205,> 12.5 µM (inactive)
same,GI50,DMS-114,> 12.5 µM (inactive)
same,GI50,UACC-62,0.065 µM (active)
same,GI50,M14,> 12.5 µM (inactive)
same,GI50,UACC-257,> 12.5 µM (inactive)
same,GI50,HCT-15,> 12.5 µM
same,GI50,OVCAR-4,> 12.5 µM (inactive)
same,GI50,LXFL 529,> 12.5 µM (inactive)
same,GI50,SK-MEL-5,> 12.5 µM (inactive)
same,GI50,HOP-92,> 12.5 µM (inactive)
same,GI50,M19-MEL,> 12.5 µM (inactive)
same,GI50,LOX IMVI,> 12.5 µM (inactive)
same,GI50,NCI-H460,> 12.5 µM (inactive)
same,GI50,Malme-3M,> 12.5 µM (inactive)
same,GI50,UO-31,> 12.5 µM (inactive)
same,GI50,SF-268,> 12.5 µM (inactive)
same,GI50,SF-539,> 12.5 µM (inactive)
same,GI50,NCI-H23,> 12.5 µM (inactive)
same,GI50,OVCAR-8,> 12.5 µM (inactive)
same,GI50,K562,> 12.5 µM (inactive)
same,GI50,CCRF-CEM,> 12.5 µM (inactive)
same,GI50,OVCAR-5,> 12.5 µM (inactive)
same,GI50,SK-MEL-28,> 12.5 µM (inactive)
same,GI50,ACHN,> 12.5 µM (inactive)
same,GI50,MOLT-4,> 12.5 µM (inactive)
same,GI50,TK-10,> 12.5 µM (inactive)
same,GI50,HCC 2998,> 12.5 µM (inactive)
same,GI50,KM-20L2,> 12.5 µM (inactive)
same,GI50,A549,> 12.5 µM (inactive)
same,GI50,SN12C,> 12.5 µM (inactive)
same,GI50,A498,> 12.5 µM (inactive)
same,GI50,KM12,> 12.5 µM (inactive)
same,GI50,SNB-19,> 12.5 µM (inactive)
same,GI50,HCT-116,> 12.5 µM (inactive)
same,GI50,CAKI-1,> 12.5 µM (inactive)
same,GI50,HL-60,> 12.5 µM (inactive)
same,GI50,EKVX,> 12.5 µM (inactive)
same,GI50,OVCAR-3,> 12.5 µM (inactive)
Cc1nc(Nc2ccc(Cl)cc2)sc1C(=O)Nc1cccc2c(=O)[nH][nH]c(=O)c12,GI50,SW-620,25.5 µM (inactive)
same,GI50,786-0,19 µM (inactive)
same,GI50,NCI-H522,23.5 µM (inactive)
same,GI50,HOP-62,35.6 µM (inactive)
same,GI50,DMS-273,7.24 µM (inactive)
same,GI50,SK-MEL-2,30.4 µM (inactive)
same,GI50,U-251,34.3 µM (inactive)
same,GI50,DLD-1,17.5 µM (inactive)
same,GI50,SR,21 µM (inactive)
same,GI50,SNB-75,28 µM (inactive)
same,GI50,IGROV-1,25.2 µM (inactive)
same,GI50,NCI-H226,83.6 µM (inactive)
same,GI50,SK-OV-3,52.6 µM (inactive)
same,GI50,SNB-78,> 100 µM (inactive)
same,GI50,COLO 205,16 µM (inactive)
same,GI50,DMS-114,19.2 µM (inactive)
same,GI50,UACC-62,0.439 µM (active)
same,GI50,M14,17.6 µM (inactive)
same,GI50,UACC-257,96.8 µM (inactive)
same,GI50,HCT-15,21.8 µM
same,GI50,OVCAR-4,49.4 µM (inactive)
same,GI50,RXF 393,28.6 µM (inactive)
same,GI50,HT-29,16.8 µM (inactive)
same,GI50,LXFL 529,13.1 µM (inactive)
same,GI50,SK-MEL-5,2.52 µM (inactive)
same,GI50,HOP-92,13.3 µM (inactive)
same,GI50,M19-MEL,30.3 µM (inactive)
same,GI50,LOX IMVI,13.6 µM (inactive)
same,GI50,NCI-H460,25.8 µM (inactive)
same,GI50,Malme-3M,36 µM (inactive)
same,GI50,UO-31,31.8 µM (inactive)
same,GI50,SF-268,31.8 µM (inactive)
same,GI50,SF-539,36.7 µM (inactive)
same,GI50,NCI-H23,16.4 µM (inactive)
same,GI50,OVCAR-8,> 100 µM (inactive)
same,GI50,K562,1.26 µM (inactive)
same,GI50,CCRF-CEM,16.9 µM (inactive)
same,GI50,OVCAR-5,36.9 µM (inactive)
same,GI50,SK-MEL-28,52.4 µM (inactive)
same,GI50,ACHN,20.9 µM (inactive)
same,GI50,MOLT-4,19 µM (inactive)
same,GI50,TK-10,> 100 µM (inactive)
same,GI50,HCC 2998,39.5 µM (inactive)
same,GI50,KM-20L2,11.8 µM (inactive)
same,GI50,A549,33.1 µM (inactive)
same,GI50,SF-295,24.7 µM (inactive)
same,GI50,SN12C,36.1 µM (inactive)
same,GI50,A498,22.8 µM (inactive)
same,GI50,KM12,51.8 µM (inactive)
same,GI50,SNB-19,43.3 µM (inactive)
same,GI50,HCT-116,24 µM (inactive)
same,GI50,CAKI-1,33.2 µM (inactive)
same,GI50,HL-60,8.75 µM (inactive)
same,GI50,EKVX,8.34 µM (inactive)
same,GI50,OVCAR-3,18.9 µM (inactive)
CCCCCCCCC[n+]1cccc(C2C(C(=O)OCC)=C(C)NC(C)=C2C(=O)OCC)c1,GI50,Hs-578T,3.1 µM (inactive)
same,GI50,SW-620,4.26 µM (inactive)
same,GI50,786-0,7.08 µM (inactive)
same,GI50,MDA-MB-435,2.08 µM (inactive)
same,GI50,RPMI-8226,1.54 µM (inactive)
same,GI50,NCI-H522,2.68 µM (inactive)
same,GI50,HOP-62,13 µM (inactive)
same,GI50,SK-MEL-2,1.65 µM (inactive)
same,GI50,U-251,3.21 µM (inactive)
same,GI50,SR,5.74 µM (inactive)
same,GI50,SNB-75,3.67 µM (inactive)
same,GI50,IGROV-1,2.02 µM (inactive)
same,GI50,NCI-H226,11.9 µM (inactive)
same,GI50,MDA-MB-231,2.97 µM (inactive)
same,GI50,SK-OV-3,11.3 µM (inactive)
same,GI50,COLO 205,2.56 µM (inactive)
same,GI50,UACC-62,1.54 µM (inactive)
same,GI50,M14,2.7 µM (inactive)
same,GI50,UACC-257,2.38 µM (inactive)
same,GI50,HCT-15,16 µM
same,GI50,OVCAR-4,6.9 µM (inactive)
same,GI50,RXF 393,2.03 µM (inactive)
same,GI50,HT-29,3.96 µM (inactive)
same,GI50,DU-145,11.6 µM (inactive)
same,GI50,SK-MEL-5,1.88 µM (inactive)
same,GI50,MDA-N,2.13 µM (inactive)
same,GI50,HOP-92,1.95 µM (inactive)
same,GI50,NCI/ADR-RES,52.6 µM (inactive)
same,GI50,T47D,5.04 µM (inactive)
same,GI50,LOX IMVI,2.92 µM (inactive)
same,GI50,NCI-H460,5.7 µM (inactive)
same,GI50,Malme-3M,1.9 µM (inactive)
same,GI50,UO-31,16.2 µM (inactive)
same,GI50,SF-268,4.67 µM (inactive)
same,GI50,SF-539,4.15 µM (inactive)
same,GI50,NCI-H23,4.36 µM (inactive)
same,GI50,OVCAR-8,3.39 µM (inactive)
same,GI50,K562,3.89 µM (inactive)
same,GI50,MCF7,2.6 µM (inactive)
same,GI50,CCRF-CEM,2.11 µM (inactive)
same,GI50,OVCAR-5,10.7 µM (inactive)
same,GI50,SK-MEL-28,2.44 µM (inactive)
same,GI50,ACHN,14.6 µM (inactive)
same,GI50,MOLT-4,3.98 µM (inactive)
same,GI50,TK-10,10.7 µM (inactive)
same,GI50,PC-3,4.27 µM (inactive)
same,GI50,HCC 2998,6.01 µM (inactive)
same,GI50,BT-549,1.71 µM (inactive)
same,GI50,A549,18.2 µM (inactive)
same,GI50,SF-295,17 µM (inactive)
same,GI50,SN12C,4.67 µM (inactive)
same,GI50,A498,18.2 µM (inactive)
same,GI50,KM12,1.98 µM (inactive)
same,GI50,SNB-19,3.45 µM (inactive)
same,GI50,HCT-116,4 µM (inactive)
same,GI50,CAKI-1,13.6 µM (inactive)
same,GI50,HL-60,2.82 µM (inactive)
same,GI50,EKVX,11.9 µM (inactive)
same,GI50,OVCAR-3,3.86 µM (inactive)

# — ChEMBL document CHEMBL1201862, “PubChem BioAssay data set” (2004)
